# Calls of active or inactive are those of the source. The rule behind the calls is not given here.
# System: Ga16-expressing cells, calcium fluorescence, counterscreen for TAAR1 agonists
# Assay: Ga16 cell calcium activation, analog series – fluorescence, dose response, MedChem round 1, counter-screen for TAAR1 agonist project, SAR follow-up (AID 743496)
row,SMILES,EC50
1,O=C(CCN1CCC(O)(c2ccccc2)C1)c1ccc2c(c1)OCCO2 (stereo unspecified),> 29.9 µM (inactive)
2,CC(CN1CCCC1Cc1ccccc1)C(=O)c1ccc2c(c1)OCCO2 (stereo unspecified),> 29.9 µM (inactive)
3,O=C(CCN1CCC(c2ccccc2)C1)c1ccccc1 (stereo unspecified),> 29.9 µM (inactive)
4,CC1CN(CCC(=O)c2ccc3c(c2)OCCO3)CC1c1ccccc1 (stereo unspecified),> 29.9 µM (inactive)
5,O=C(CCN1C[C@@H](C(=O)O)[C@H](c2ccccc2)C1)NC1CCCC1,> 29.9 µM (inactive)
6,CC(CN1CCC(c2ccccc2)C1)C(=O)c1ccc2c(c1)OCCO2 (stereo unspecified),> 29.9 µM (inactive)
7,O=C(CCN1C[C@@H](C(=O)O)[C@H](c2cccc(F)c2)C1)NC1CC1,> 29.9 µM (inactive)
8,O=C(CCN1CCC(O)(c2ccc(F)cc2)C1)c1ccc2c(c1)OCCO2 (stereo unspecified),> 29.9 µM (inactive)
9,O=C(CCN1C[C@@H](C(=O)O)[C@H](c2ccccc2)C1)NCc1cccs1,> 29.9 µM (inactive)
10,Cc1ccc(C(=O)CCN2CCC(c3ccccc3)C2)cc1 (stereo unspecified),> 29.9 µM (inactive)
11,NC(=O)CCN1C[C@H](c2ccccc2)[C@@H]2[C@H]1C1CCN2CC1,> 29.9 µM (inactive)
